The results in this text go back to patent US20250134890A1, “ANTIMALARIAL HEXAHYDROPYRIMIDINE ANALOGUES” (UCB BIOPHARMA SRL, priority 2022, published 2025).

Broadly, the IC50 is the concentration at which inhibition is half-maximal. Read a low IC50 as greater potency.

Structures can show the parent of a compound that is named as a salt.

The subject of the test is Plasmodium falciparum: 3D7 strain. The experiment in a line: P. falciparum 3D7 asexual blood stage assay (SYBR green readout). Particulars: Plasmodium falciparum, 3D7, Erythrocyte, 72 h, P. falciparum 3D7 in human erythrocytes, 72 h incubation, SYBR green fluorescence. Format: cell-based. Summed up:
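3D7-infected erythrocytes (5% haematocrit, 0.5% parasitaemia) were exposed 72 h at 37 °C under 1% O2/3% CO2 to a 20-point titration (50,000-15 nM final, 0.5% DMSO). Parasite DNA was read by SYBR green fluorescence after overnight lysis. Percent inhibition was set against mefloquine and DMSO, and EC50 came from a biphasic two-site fit.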
For `C[C@@H]1C[C@H](N2C(=N)N[C@](C)(c3cccc(-c4ccc(F)cc4F)c3Cl)CC2=O)CCN1` (relative stereo) [Example 103, (6S)-6-[2-Chloro-3-(2,4-difluoro-phenyl)phenyl]-2-imino-6-methyl-3-[(2R*,4R*)-2-methylpiperidin-4-yl]hexahydropyrimidin-4-one hydrochloride], the IC50 was 744 nM.

The compound `C[C@@H]1C[C@H](N2C(=N)N[C@](C)(c3cccc(-c4cccc(Cl)c4)c3Cl)CC2=O)CC[C@H]1O` (relative stereo) [Example 104, (6S)-6-[2-Chloro-3-(3-chloro-phenyl)phenyl]-3-[(1S*,3S*,4S*)-4-hydroxy-3-methylcyclohexyl]-2-imino-6-methylhexahydro-pyrimidin-4-one hydrochloride] gave an IC50 of 4940 nM.

As for `C[C@H]1C[C@@H](N2C(=N)N[C@](C)(c3cccc(-c4cccc(Cl)c4)c3Cl)CC2=O)CC[C@@H]1O` (relative stereo) [Example 105, (6S)-6-[2-Chloro-3-(3-chloro-phenyl)phenyl]-3-[(1R*,3R*,4R*)-4-hydroxy-3-methylcyclohexyl]-2-imino-6-methylhexahydro-pyrimidin-4-one hydrochloride], the IC50 amounted to 1560 nM.

For `C[C@H]1C[C@@H](N2C(=N)N[C@](C)(c3cccc(-c4ccc(F)cc4F)c3Cl)CC2=O)CCN1C` (relative stereo) [Example 106, (6S)-6-[2-Chloro-3-(2,4-difluoro-phenyl)phenyl]-3-[(2S*,4S*)-1,2-dimethylpiperidin-4-yl]-2-imino-6-methylhexahydropyrimidin-4-one hydrochloride], the IC50 was 94 nM. This IC50 lies about 17-fold lower than the previous one.

As to `C[C@@H]1C[C@H](N2C(=N)N[C@](C)(c3cccc(-c4ccc(F)cc4F)c3Cl)CC2=O)CCN1C` (relative stereo) [Example 107, (6S)-6-[2-Chloro-3-(2,4-difluoro-phenyl)phenyl]-3-[(2R*,4R*)-1,2-dimethylpiperidin-4-yl]-2-imino-6-methylhexahydropyrimidin-4-one hydrochloride], the IC50 was found to be 228 nM.

As for `C[C@@]1(c2cccc(-c3cn(-c4cccc(F)c4)nn3)c2Cl)CC(=O)N([C@H]2CCC(F)(F)[C@@H](O)C2)C(=N)N1` (relative stereo) [Example 108, (6S)-6-{2-Chloro-3-[1-(3-fluoro-phenyl)-1,2,3-triazol-4-yl]phenyl}-3-[(1S*,3S*)-4,4-difluoro-3-hydroxycyclohexyl]-2-imino-6-methylhexahydropyrimidin-4-one hydrochloride], 325 nM corresponded to half-maximal inhibition (IC50).

In turn, `C[C@H]1C[C@@H](N2C(=N)N[C@](C)(c3cccc(-c4cn(-c5cc(F)c(F)cc5F)nn4)c3Cl)CC2=O)CC[C@H]1O` (relative stereo) [Example 112, (6S)-6-{2-Chloro-3-[1-(2,4,5-trifluorophenyl)-1,2,3-triazol-4-yl]-phenyl}-3-[(1S*,3S*,4R*)-4-hydroxy-3-methylcyclohexyl]-2-imino-6-methylhexahydro-pyrimidin-4-one hydrochloride] had an IC50 of 132 nM. This IC50 lies about 2.5-fold lower than the previous one.

`C[C@@H]1C[C@H](N2C(=N)N[C@](C)(c3cccc(-c4cn(-c5cc(F)c(F)cc5F)nn4)c3Cl)CC2=O)CC[C@@H]1O` (relative stereo) [Example 113, (6S)-6-{2-Chloro-3-[1-(2,4,5-trifluorophenyl)-1,2,3-triazol-4-yl]-phenyl}-3-[(1R*,3R*,4S*)-4-hydroxy-3-methylcyclohexyl]-2-imino-6-methylhexahydro-pyrimidin-4-one hydrochloride] gave an IC50 of 540 nM.

Compound `C[C@H]1C[C@@H](N2C(=N)N[C@](C)(c3cccc(-c4cccc(C(O)C(F)F)c4)c3Cl)CC2=O)CCO1` (single isomer, unassigned) [Example 25, (6S)-6-(2-Chloro-3-{3-[(1R*)-2,2-difluoro-1-hydroxyethyl]phenyl}-phenyl)-2-imino-6-methyl-3-[(2S,4S)-2-methyltetrahydropyran-4-yl]hexahydropyrimidin-4-one hydrochloride] showed a half-maximal inhibitory concentration (IC50) of 38 nM.
